US20230089867A1, “CYCLIC PENTAMER COMPOUNDS AS PROPROTEIN CONVERTASE SUBTILISIN/KEXIN TYPE 9 (PCSK9) INHIBITORS FOR THE TREATMENT OF METABOLIC DISORDER” (Novartis AG, priority 2018, published 2023)
Like-named read-outs stand apart in the source and are kept apart here.

Tests used:
[1] = amide bond, 18-membered ring, HATU/HOAt/2,6-lutidine
[2] = from (3S,6S,9S,14S,17R)-17-benzyl-9-(4-chlorobenzyl)-1-(4-ethyl-2-(4-(1-methyl-2-(pyrrolidin-1-ylmethyl)-1H-imidazol-5-yl)phenoxy)phenyl)-3-(2-fluoroethyl)-6-(methoxymethyl)-8,14,15-trimethyl-4,7,11,16-tetraoxo-2,5,8,12,15-pentaazanonadecan-19-oic acid; amide bond; 18-membered ring; HATU/HOAt/2,6-lutidine; DCM; 0.238 mM; 39.0 °C
human PCSK9 = human PCSK9 (Homo sapiens, UniProt Q8NBP7); test: PCSK9 ligand binding TR-FRET assay (interference with binding of human PCSK9 to human LDLR)
How it was run: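 Threefold compound dilutions were pre-incubated 30 min with PCSK9, after which 4 nM Europium Kryptate-tagged human LDLR ectodomain was added for a further 2 h.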

Chain of human PCSK9 (Q8NBP7 153-692): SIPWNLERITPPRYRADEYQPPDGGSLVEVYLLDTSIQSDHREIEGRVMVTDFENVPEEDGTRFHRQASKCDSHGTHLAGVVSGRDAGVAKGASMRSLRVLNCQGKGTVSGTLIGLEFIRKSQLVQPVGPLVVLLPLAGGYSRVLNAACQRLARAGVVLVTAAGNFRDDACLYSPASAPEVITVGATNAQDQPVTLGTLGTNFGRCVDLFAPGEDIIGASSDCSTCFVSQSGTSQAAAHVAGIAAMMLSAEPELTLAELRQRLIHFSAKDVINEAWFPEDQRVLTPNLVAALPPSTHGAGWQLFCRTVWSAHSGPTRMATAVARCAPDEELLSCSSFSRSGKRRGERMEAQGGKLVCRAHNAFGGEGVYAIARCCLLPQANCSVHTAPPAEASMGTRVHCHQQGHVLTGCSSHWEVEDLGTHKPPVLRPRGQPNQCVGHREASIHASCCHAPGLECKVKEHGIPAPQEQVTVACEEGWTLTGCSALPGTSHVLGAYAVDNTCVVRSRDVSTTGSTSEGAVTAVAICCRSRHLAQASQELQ
Chain of human PCSK9 (Q8NBP7 31-152 partner limits assumed): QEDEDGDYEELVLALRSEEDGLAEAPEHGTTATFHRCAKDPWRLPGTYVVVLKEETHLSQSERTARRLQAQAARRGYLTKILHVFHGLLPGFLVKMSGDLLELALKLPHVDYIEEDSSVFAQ

In the case of “(2S,5S,8S,13S,16R)-16-benzyl-8-(4-chlorobenzyl)-1-(4-ethyl-2-(4-(1-methyl-2-(pyrrolidin-1-ylmethyl)-1H-imidazol-5-yl)phenoxy)benzyl)-5-(methoxymethyl)-2,7,13,14-tetramethyl-1,4,7,11,14-pentaazacyclooctadecane-3,6,10,15,18-pentaone hydrochloride”, the ring closure, yield after HPLC ([1]; DCM, 0.777 mM, 40.0 °C) is reported as 47%.

For “(4S,7S,10S,16aS,20aS)-4-(4-chlorobenzyl)-11-(2-(difluoromethoxy)-6-(4-(2-((dimethylamino)methyl)-1-methyl-1H-imidazol-5-yl)phenoxy)benzyl)-7-(methoxymethyl)-5,10,16-trimethylhexadecahydro-benzo[l][1,4,7,11,14]pentaazacyclooctadecine-2,6,9,12,15(3H)-pentaone”, the ring closure, yield after HPLC ([1]; DCM/NMP 10:1, 0.91 mM, 40.0 °C) was 22%.

Work on `CCc1ccc(CN2C(=O)C[C@@H](Cc3ccccc3)C(=O)N(C)[C@@H](C)CNC(=O)C[C@H](Cc3ccc(Cl)cc3)N(C)C(=O)[C@H](COC)NC(=O)[C@@H]2CCF)c(Oc2ccc(-c3cnc(CN4CCCC4)n3C)cc2)c1` [Compound 26, (2S,5S,8S,13S,16R)-16-benzyl-8-(4-chlorobenzyl)-1-(4-ethyl-2-(4-(1-methyl-2-(pyrrolidin-1-ylmethyl)-1H-imidazol-5-yl)phenoxy)benzyl)-2-(2-fluoroethyl)-5-(methoxymethyl)-7,13,14-trimethyl-1,4,7,11,14-pentaazacyclooctadecane-3,6,10,15,18-pentaone] yielded a ring closure, isolated yield [2] of 47%, a Max % inhibition (human PCSK9; PCSK9 FRET assay, efficacy (Amax), 100% = 1 uM unlabeled human PCSK9, 0% = DMSO) of 104.11% and an IC50 (human PCSK9; TR-FRET, human PCSK9 Alexa Fluor 647 / human LDLR extracellular domain-Europium Kryptate, read-out: PCSK9 FRET Assay IC50) of 2.4 nM.

“(4S,7S,10S,14R,16aS,20aS)-14-Benzyl-11-(4-chloro-2-(4-(2-((dimethylamino)methyl)-1-methyl-1H-imidazol-5-yl)phenoxy)benzyl)-4-(4-chlorobenzyl)-7-(methoxymethyl)-5,16-dimethyl-10-(3-(3,3,4,4-tetrafluoropyrrolidin-1-yl)propyl)hexadecahydrobenzo[l][1,4,7,11,14]pentaazacyclooctadecine-2,6,9,12,15(3H)-pentaone” showed a ring closure, yield after HPLC ([1]; DCM, 0.524 mM, 39.0 °C) of 17%.
